Measurements: US6215002A, “Pyrrolopyrrolone derivatives as inhibitors of neutrophil elastase” (priority 1996, dated 2001)
Structures can show the parent of a compound that is named as a salt.

Key:
[1] = target: T1, human neutrophil elastase (Homo sapiens, UniProt P08246); test: In vitro assay of human neutrophil elastase (HNE); assay type: biochemical; conditions: 118 nM purified human neutrophil elastase, pH 8.6, 15 min incubation at 30° C., MeO-succinyl-alanyl-alanyl-prolyl-valyl-p-nitroanilide substrate; read-out: HNE IC50
T1 sequence (P08246 30-267): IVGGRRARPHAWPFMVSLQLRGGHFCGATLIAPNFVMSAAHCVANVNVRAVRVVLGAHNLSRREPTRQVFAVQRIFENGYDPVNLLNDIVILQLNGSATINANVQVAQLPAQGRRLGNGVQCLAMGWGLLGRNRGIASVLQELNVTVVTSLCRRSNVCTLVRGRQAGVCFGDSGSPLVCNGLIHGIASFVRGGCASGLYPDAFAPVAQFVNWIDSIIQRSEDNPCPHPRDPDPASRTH
Method in brief: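 Residual activity was taken as the 10 min rate of absorbance rise at 405 nm after adding 0.6 mM MeO-succinyl-AAPV-p-nitroanilide. Curve fitting of activity against concentration gave IC50.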

Intracellular elastase = test: Oral in vivo model using IL-8 induced lung infiltrates for the assessment of intracellular elastase inhibition (hamster test); conditions: effective dose of less than 40 mg/kg, IL-8 intratracheal
Method in brief: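 Fasted adult hamsters (n=4) given compound orally in water, with intratracheal 1 ug recombinant human IL-8; sacrificed 6 h later. Neutrophils from lung lavage and femoral bone marrow sonicated, granules disrupted, and elastase measured, with myeloperoxidase used to normalise for neutrophil recovery.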

CC(C)NC/C=C/C(=O)N1CC[C@H]2[C@H]1[C@@H](C(C)C)C(=O)N2S(C)(=O)=O.Cl (relative stereo) [Example 151, rel-(3R,3aR,6aS)-3-Isopropyl-4-(4-isopropylamino-but-2E-enoyl)-1-methanesulfonyl-hexahydro-pyrrolo[3,2-b]pyrrol-2-one hydrochloride]
IC50 [1]: 85 nM
duration of effect (Intracellular elastase): at least 6 hours

CC(C)[C@H]1C(=O)N(S(C)(=O)=O)[C@H]2CCN(C(=O)/C=C/CN(C)C)[C@H]12.Cl (relative stereo) [Example 148, rel-(3R,3aR,6aS)-4-(4-Dimethylamino-but-2E-enoyl)-3-isopropyl-1-methanesulfonyl-hexahydro-pyrrolo[3,2-b]pyrrol-2-one hydrochloride]
IC50 [1]: 35 nM
duration of effect (Intracellular elastase): at least 6 hours

CCC[C@H]1C(=O)N(S(C)(=O)=O)[C@H]2CCN(C(=O)CCCCCN3CCOCC3)[C@H]12.O=C(O)C(O)C(O)C(=O)O (relative stereo) [Example 58, rel-(3R,3aR,6aS)-1-Methanesulfonyl-4-(6-morpholin-4-yl-hexanoyl)-3-propylhexahydro-pyrrolo[3,2-b]pyrrol-2-one 2,3-dihydroxysuccinate]
IC50 [1]: 72 nM
duration of effect (Intracellular elastase): at least 6 hours

CC(C)NCc1ccc(C(=O)N2CC[C@H]3[C@H]2[C@@H](C(C)C)C(=O)N3S(C)(=O)=O)cc1.Cl (relative stereo) [Example 179, rel-(3R,3aR,6aS)-3-Isopropyl-4-[4-(isopropylamino-methyl)-benzoyl]-1-methanesulfonyl-hexahydro-pyrrolo[3,2-b]pyrrol-2-one hydrochloride]
IC50 [1]: 47 nM
duration of effect (Intracellular elastase): at least 6 hours

CC(C)[C@H]1C(=O)N(S(C)(=O)=O)[C@H]2CCN(C(=O)c3ccc(CN4CCNCC4)cc3)[C@H]12.Cl.Cl (relative stereo) [Example 188, rel-(3R,3aR,6aS)-3-Isopropyl-1-methanesulfonyl-4-(4-piperazin-1-ylmethyl-benzoyl)-hexahydro-pyrrolo[3,2-b]pyrrol-2-one dihydrochloride]
IC50 [1]: 67 nM
duration of effect (Intracellular elastase): at least 6 hours

CC(C)[C@H]1C(=O)N(S(C)(=O)=O)[C@H]2CCN(C(=O)/C=C/CN3C[C@H]4Cc5c(F)ccc(F)c5C[C@@H]4C3)[C@H]12 (relative stereo) [Example 153, rel-(3R,3aR,6aS)-4-[4-(5,8-Difluoro-1,3,3a,4,9,9a-hexahydro-(3aS,9aS)-benzol[f]isoindol-2-yl)-but-2E-enoyl]-3-isopropyl-1-methanesulfonyl-hexahydro-pyrrolo[3,2-b]pyrrol-2-one hydrochloride]
IC50 [1]: 114 nM
duration of effect (Intracellular elastase): at least 6 hours

CC(C)[C@H]1C(=O)N(S(C)(=O)=O)[C@H]2CCN(C(=O)c3ccc(CN4CCC(C(N)=O)CC4)cc3)[C@H]12.Cl (relative stereo) [Example 187, rel-1-[4-(6R-Isopropyl-4-methanesulfonyl-5-oxo-hexahydro-(3aS,6aR)-pyrrolo[3,2-b]pyrrole-1-carbonyl)-benzyl]-piperidine-4-carboxylic acid amide hydrochloride]
IC50 [1]: 43 nM
duration of effect (Intracellular elastase): at least 6 hours

CCC[C@H]1C(=O)N(S(C)(=O)=O)[C@H]2CCN(C(=O)/C=C/CN3CCCCC3)[C@H]12 (relative stereo) [Example 57, rel-(3R,3aR,6aS)-1-Methanesulfonyl-4-(4-piperidin-1-yl-but-2-(E)-enoyl-3-propyl-hexahydro-pyrrolo[3,2-b]pyrrol-2-one hydrochloride]
IC50 [1]: 27 nM
duration of effect (Intracellular elastase): at least 6 hours

CCCN(C)C/C=C/C(=O)N1CC[C@H]2[C@H]1[C@@H](C(C)C)C(=O)N2S(C)(=O)=O.Cl (relative stereo) [Example 141, rel-(3R,3aR,6aS)-3-Isopropyl-1-methanesulfonyl-4-[4-(methyl-propyl-amino)-but-2E-enoyl]-hexahydro-pyrrolo[3,2-b]pyrrol-2-one hydrochloride]
IC50 [1]: 176 nM
duration of effect (Intracellular elastase): at least 6 hours

COC(=O)[C@@H]1CCCN1Cc1ccc(C(=O)N2CC[C@H]3[C@H]2[C@@H](C(C)C)C(=O)N3S(C)(=O)=O)cc1 (relative stereo) [Example 183, 1-[4-(rel-6R-Isopropyl-4-methanesulfonyl-5-oxo-hexahydro-(3aS,6aR)-pyrrolo[3,2-b]pyrrole-1-carbonyl)-benzyl]-pyrrolidine-2S-carboxylic acid methyl ester hydrochloride]
IC50 [1]: 46 nM
duration of effect (Intracellular elastase): at least 6 hours

CC(C)[C@H]1C(=O)N(S(C)(=O)=O)[C@H]2CCN(C(=O)c3cccc(CN4CCN(C)CC4)c3)[C@H]12.Cl.Cl (relative stereo) [Example 189, rel-(3R,3aR,6aS)-3-Isopropyl-1-methanesulfonyl-4-[3-(4-methyl-piperazin-1-ylmethyl)-benzoyl]-hexahydro-pyrrolo[3,2-b]pyrrol-2-one dihydrochloride]
IC50 [1]: 62 nM
duration of effect (Intracellular elastase): at least 6 hours

CC(C)[C@H]1C(=O)N(S(C)(=O)=O)[C@H]2CCN(C(=O)/C=C/CN3CCCC3)[C@H]12.Cl (relative stereo) [Example 146, rel-(3R,3aR,6aS)-3-Isopropyl-1-methanesulfonyl-4(4-pyrrolidin-1-yl-but-2E-enoyl)-hexahydro-pyrrolo[3,2-b]pyrrol-2-one hydrochloride]
IC50 [1]: 34 nM
duration of effect (Intracellular elastase): at least 6 hours

CC(C)[C@H]1C(=O)N(S(C)(=O)=O)[C@H]2CCN(C(=O)c3cccc(CN4CCCCC4)c3)[C@H]12 (relative stereo) [Example 192, rel-(3R,3aR,6aS)-3-Isopropyl-1-methanesulfonyl-4-(3-piperidin-1-ylmethyl-benzoyl)-hexahydro-pyrrolo]3,2-b]pyrrol-2-one hydrochloride]
IC50 [1]: 61 nM
duration of effect (Intracellular elastase): at least 6 hours

CC(C)[C@H]1C(=O)N(S(C)(=O)=O)[C@H]2CCN(C(=O)/C=C/CN3CCCCCC3)[C@H]12 (relative stereo) [Example 136, hydrochloride]
IC50 [1]: 22 nM
duration of effect (Intracellular elastase): at least 6 hours

CC(C)[C@H]1C(=O)N(S(C)(=O)=O)[C@H]2CCN(C(=O)c3cccs3)[C@H]12 (relative stereo) [Example 249, rel-(3R,3aR,6aS)-3-Isopropyl-1-methanesulfonyl-4-(thiophene-2-carbonyl)-hexahydro-pyrrolo[3,2-b]pyrrol-2-one]
IC50 [1]: 68 nM
duration of effect (Intracellular elastase): at least 6 hours

CC(=O)N1CCN(Cc2ccc(C(=O)N3CC[C@H]4[C@H]3[C@@H](C(C)C)C(=O)N4S(C)(=O)=O)cc2)CC1 (relative stereo) [Example 185, rel-(3R,3aR,6aS)-4-[4-Acetyl-piperazin-1-ylmethyl)-benzoyl]-3-isopropyl-1-methanesulfonyl-hexahydro-pyrrolo[3,2-b]pyrrol-2-one hydrochloride]
IC50 [1]: 33 nM
duration of effect (Intracellular elastase): at least 6 hours

CC(C)[C@H]1C(=O)N(S(C)(=O)=O)[C@H]2CCN(C(=O)c3ccc(CN4CCC5CCCCC5C4)cc3)[C@H]12.Cl (relative stereo) [Example 184, rel-(3R,3aR,6aS)-3-Isopropyl-1-methanesulfonyl-4-[4-(octahydro-isoquinolin-2-ylmethyl)-benzoyl]-hexahydro-pyrrolo[3,2-b]pyrrol-2-one hydrochloride]
IC50 [1]: 12 nM
duration of effect (Intracellular elastase): at least 6 hours
